Results: patent publication US7235551B2, “1,5-disubstituted-3,4-dihydro-1h-pyrimido[4,5-d]pyrimidin-2-one compounds and their use in treating csbp/p38 kinase mediated diseases” (SmithKline Beecham Corporation, priority 2000, dated 2007)

Structure (SMILES)	melting point
COc1nc(-c2ccc(F)cc2C)c2c(n1)N(c1c(F)cccc1F)C(=O)NC2 [Example 161, 1-(2,6-Difluorophenyl)-5-(4-fluoro-2-methylphenyl)-7-methoxy-3,4-dihydro-1H-pyrimido[4,5-d]pyrimidin-2-one]	210 to 211 °C
Cc1cc(F)ccc1-c1nc(OCCO)nc2c1CNC(=O)N2c1c(F)cccc1F [Example 163, 1-(2,6-Difluorophenyl)-5-(4-fluoro-2-methylphenyl)-7-(2-hydroxyethoxy)-3,4-dihydro-1H-pyrimido[4,5-d]pyrimidin-2-one]	172 to 175 °C
COc1nc(-c2ccccc2)c2c(n1)N(c1c(F)cccc1F)C(=O)NC2 [Example 166, 1-(2,6-Difluorophenyl)-5-phenyl-7-methoxy-3,4-dihydro-1H-pyrimido[4,5-d]pyrimidin-2-one]	221 to 224 °C
COc1nc(-c2ccccc2)c2c(n1)N(c1ccccc1)C(=O)NC2 [Example 167, 1,5-diphenyl-7-methoxy-3,4-dihydro-1H-pyrimido[4,5-d]pyrimidin-2-one]	220 to 222 °C
